Each structure is given as a SMILES string. Counter-ions that a name gives are not always drawn.

The target in one assay is T1, recombinant human baculovirus-expressed GST-tagged FASN (Homo sapiens, UniProt P49327).
T1 construct: GST
T1 sequence (P49327 whole entry): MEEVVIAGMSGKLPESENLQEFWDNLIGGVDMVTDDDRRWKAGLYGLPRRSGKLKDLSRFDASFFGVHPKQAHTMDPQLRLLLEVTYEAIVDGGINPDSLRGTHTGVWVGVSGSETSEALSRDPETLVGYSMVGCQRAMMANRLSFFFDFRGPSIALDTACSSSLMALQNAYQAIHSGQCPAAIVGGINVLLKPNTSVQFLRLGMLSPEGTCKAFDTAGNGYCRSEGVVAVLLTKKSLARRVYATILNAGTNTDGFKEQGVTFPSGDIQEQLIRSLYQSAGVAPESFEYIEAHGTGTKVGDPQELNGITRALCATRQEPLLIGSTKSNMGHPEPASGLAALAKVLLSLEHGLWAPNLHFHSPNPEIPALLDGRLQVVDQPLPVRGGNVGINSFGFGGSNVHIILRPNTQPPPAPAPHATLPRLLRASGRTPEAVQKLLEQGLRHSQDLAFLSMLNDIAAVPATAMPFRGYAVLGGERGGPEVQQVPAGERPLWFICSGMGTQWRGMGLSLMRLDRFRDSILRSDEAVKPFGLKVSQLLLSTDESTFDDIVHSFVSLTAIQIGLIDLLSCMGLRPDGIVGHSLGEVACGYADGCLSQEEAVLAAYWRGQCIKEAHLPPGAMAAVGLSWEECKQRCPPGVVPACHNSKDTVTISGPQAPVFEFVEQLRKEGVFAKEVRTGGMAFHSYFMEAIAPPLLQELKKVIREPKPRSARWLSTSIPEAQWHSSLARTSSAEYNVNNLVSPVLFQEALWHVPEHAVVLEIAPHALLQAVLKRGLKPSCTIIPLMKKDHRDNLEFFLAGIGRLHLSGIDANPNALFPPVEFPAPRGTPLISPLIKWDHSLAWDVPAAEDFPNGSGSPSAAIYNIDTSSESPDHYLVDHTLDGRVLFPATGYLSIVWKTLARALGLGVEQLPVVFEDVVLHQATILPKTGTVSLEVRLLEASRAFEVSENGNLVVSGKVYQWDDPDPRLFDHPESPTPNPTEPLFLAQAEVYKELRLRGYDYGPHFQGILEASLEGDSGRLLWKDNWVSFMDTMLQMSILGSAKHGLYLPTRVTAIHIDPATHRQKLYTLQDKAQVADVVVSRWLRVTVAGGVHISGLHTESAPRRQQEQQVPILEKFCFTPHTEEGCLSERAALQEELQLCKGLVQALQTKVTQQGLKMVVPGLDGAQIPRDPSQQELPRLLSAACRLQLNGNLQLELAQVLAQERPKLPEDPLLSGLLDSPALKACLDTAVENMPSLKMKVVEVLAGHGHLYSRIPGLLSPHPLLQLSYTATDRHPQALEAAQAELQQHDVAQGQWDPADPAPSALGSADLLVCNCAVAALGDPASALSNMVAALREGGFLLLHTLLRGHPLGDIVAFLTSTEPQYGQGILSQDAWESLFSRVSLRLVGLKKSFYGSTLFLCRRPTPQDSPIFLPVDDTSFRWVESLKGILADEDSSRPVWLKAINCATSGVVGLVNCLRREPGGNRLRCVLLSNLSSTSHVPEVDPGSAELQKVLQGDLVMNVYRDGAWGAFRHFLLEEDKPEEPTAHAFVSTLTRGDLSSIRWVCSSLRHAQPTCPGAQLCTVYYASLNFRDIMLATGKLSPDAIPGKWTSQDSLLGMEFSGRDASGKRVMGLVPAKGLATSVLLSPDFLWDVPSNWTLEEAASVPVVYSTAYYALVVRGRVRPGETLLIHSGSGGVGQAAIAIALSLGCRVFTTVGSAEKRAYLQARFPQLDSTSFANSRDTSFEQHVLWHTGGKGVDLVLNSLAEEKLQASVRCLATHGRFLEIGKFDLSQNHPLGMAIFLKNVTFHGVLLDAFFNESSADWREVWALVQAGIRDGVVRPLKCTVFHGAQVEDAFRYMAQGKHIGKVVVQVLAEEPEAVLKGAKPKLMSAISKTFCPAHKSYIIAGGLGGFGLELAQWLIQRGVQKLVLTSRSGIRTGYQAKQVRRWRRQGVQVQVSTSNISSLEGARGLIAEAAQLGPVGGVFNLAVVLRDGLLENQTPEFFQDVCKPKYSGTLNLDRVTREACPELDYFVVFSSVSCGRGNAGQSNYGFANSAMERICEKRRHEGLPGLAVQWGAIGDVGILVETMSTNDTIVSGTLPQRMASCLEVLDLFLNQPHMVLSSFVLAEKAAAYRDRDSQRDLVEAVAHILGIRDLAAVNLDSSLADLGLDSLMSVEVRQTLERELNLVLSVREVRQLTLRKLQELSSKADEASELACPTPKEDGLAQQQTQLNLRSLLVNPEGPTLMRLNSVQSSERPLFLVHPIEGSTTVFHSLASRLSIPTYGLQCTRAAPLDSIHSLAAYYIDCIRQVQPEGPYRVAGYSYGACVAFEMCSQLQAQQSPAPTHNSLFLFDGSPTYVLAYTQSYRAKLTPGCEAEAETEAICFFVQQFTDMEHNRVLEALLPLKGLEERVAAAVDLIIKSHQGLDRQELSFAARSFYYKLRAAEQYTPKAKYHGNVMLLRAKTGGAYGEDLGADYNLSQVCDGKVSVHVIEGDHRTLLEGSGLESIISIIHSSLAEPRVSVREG
As to the kind of experiment: biochemical.
Conditions: not given
For orientation: IC50 means the concentration that gives 50% inhibition. `CCC(=O)N1CCC2(CC1)OCc1cc(-c3ccc4c(C)nccc4c3)ccc1O2` [Example 21, 1-[6-(1-Methyl-6-isoquinolyl)spiro[4H-1,3-benzodioxine-2,4′-piperidine]-1′-yl]propan-1-one]: the IC50 fell in the range of 1 to 99 nM. The same measure, in the same setting: for `Cc1nccc2cc(-c3ccc4c(c3)COC3(CCN(C(=O)C5CC5)CC3)O4)ccc12` [Example 22, Cyclopropyl-[6-(1-methyl-6-isoquinolyl)spiro[4H-1,3-benzodioxine-2,4′-piperidine]-1′-yl]methanone] the value was 1 to 99 nM; for `Cc1nccc2cc(-c3ccc4c(c3)COC3(CCN(C(=O)[C@H]5CCCO5)CC3)O4)ccc12` [Example 23, [6-(1-Methyl-6-isoquinolyl)spiro[4H-1,3-benzodioxine-2,4′-piperidine]-1′-yl]-[(2R)-tetrahydrofuran-2-yl]methanone], 1 to 99 nM; for `CCOC(=O)N1CCC2(CC1)OCc1cc(-c3ccc4cccnc4c3)ccc1O2` [Example 30, Ethyl 6-(7-quinolyl)spiro[4H-1,3-benzodioxine-2,4′-piperidine]-1′-carboxylate], 1 to 99 nM. Regarding `CC(C)C(=O)N1CCC2(CC1)OCc1cc(-c3ccc4cccnc4c3)ccc1O2` [Example 31, 2-Methyl-1-[6-(7-quinolyl)spiro[4H-1,3-benzodioxine-2,4′-piperidine]-1′-yl]propan-1-one], the IC50 was in the range of 1 to 99 nM. Same read-out and setting: under `O=C(C1CC1)N1CCC2(CC1)OCc1cc(-c3ccc4cccnc4c3)ccc1O2` [Example 32, Cyclopropyl-[6-(7-quinolyl)spiro[4H-1,3-benzodioxine-2,4′-piperidine]-1′-yl]methanone] stands 1 to 99 nM. On the same count and under the same terms, under `CCC(=O)N1CCC2(CC1)OCc1cc(-c3cnc4ccccc4c3)ccc1O2` [Example 33, 1-[6-(3-Quinolyl)spiro[4H-1,3-benzodioxine-2,4′-piperidine]-1′-yl]propan-1-one] stands 1 to 99 nM; under `CC(C)C(=O)N1CCC2(CC1)OCc1cc(-c3cnc4ccccc4c3)ccc1O2` [Example 34, 2-Methyl-1-[6-(3-quinolyl)spiro[4H-1,3-benzodioxine-2,4′-piperidine]-1′-yl]propan-1-one], 1 to 99 nM; under `CCOC(=O)N1CCC2(CC1)OCc1cc(-c3cnc4cccnc4c3)ccc1O2` [Example 35, Ethyl 6-(1,5-naphthyridin-3-yl)spiro[4H-1,3-benzodioxine-2,4′-piperidine]-1′-carboxylate], 1000 to 10000 nM.

Turning to `CCC(=O)N1CCC2(CC1)OCc1cc(-c3cnc4cccnc4c3)ccc1O2` [Example 36, 1-[6-(1,5-Naphthyridin-3-yl)spiro[4H-1,3-benzodioxine-2,4′-piperidine]-1′-yl]propan-1-one], the IC50 lay within 1000 to 10000 nM. For the compound `O=C(C1CC1)N1CCC2(CC1)OCc1cc(-c3cnc4cccnc4c3)ccc1O2` [Example 37, Cyclopropyl-[6-(1,5-naphthyridin-3-yl)spiro[4H-1,3-benzodioxine-2,4′-piperidine]-1′-yl]methanone], the IC50 is 1000 to 10000 nM. In the case of `O=C(C1CC1)N1CCC2(CC1)OCc1cc(-c3cnc4ccccc4c3)ccc1O2` [Example 40, Cyclopropyl-[6-(3-quinolyl)spiro[4H-1,3-benzodioxine-2,4′-piperidine]-1′-yl]methanone], the IC50 lay within 1 to 99 nM. Turning to `O=C(C1CCC1)N1CCC2(CC1)OCc1cc(-c3cnc4ccccc4c3)ccc1O2` [Example 41, Cyclobutyl-[6-(3-quinolyl)spiro[4H-1,3-benzodioxine-2,4′-piperidine]-1′-yl]methanone], the IC50 is 1 to 99 nM.

Still in this assay, the particulars now being: 5 nM FASN, 150 μM NADPH, 10 μM acetyl-CoA, 25 μM malonyl-CoA, 90 minutes incubation; read-out: IC50 data for Compounds of Formula I, Activity.
For the compound `COc1c(-c2ccc3c(c2)CCC2(CCN(C(=O)C4CC4)CC2)O3)ccc2cccnc12` [Example 15, Cyclopropyl-[6-(8-methoxy-7-quinolyl)spiro[chromane-2,4′-piperidine]-1′-yl]-methanone, HCl], the IC50 was 1 to 99 nM. `COc1c(-c2ccc3c(c2)CCC2(CCN(C(=O)[C@H]4CCCO4)CC2)O3)ccc2cccnc12` [Example 16, [6-(8-Methoxy-7-quinolyl)spiro[chromane-2,4′-piperidine]-1′-yl]-[(2R)-tetra-hydrofuran-2-yl]methanone HCl]: the half-inhibitory concentration (IC50) lay within 1 to 99 nM. As to `CCC(=O)N1CCC2(CCc3cc(-c4cc(C)c5ncccc5c4)ccc3O2)CC1` [Example 17, 1-[6-(8-Methyl-6-quinolyl)spiro[chromane-2,4′-piperidine]-1′-yl]propan-1-one, HCl], the IC50 lay in the range of 100 to 999 nM. For the compound `Cc1cc(-c2ccc3c(c2)CCC2(CCN(C(=O)C4CC4)CC2)O3)cc2cccnc12` [Example 18, Cyclopropyl-[6-(8-methyl-6-quinolyl)spiro[chromane-2,4′-piperidine]-1′-yl]methanone HCl], the IC50 lay within 100 to 999 nM. Consider `CCC(=O)N1CCC2(CCc3cc(-c4ccc5cccnc5c4OC)ccc3O2)CC1` [Example 19, 1-[6-(8-Methoxy-7-quinolyl)spiro[chromane-2,4′-piperidine]-1′-yl]propan-1-one], for which the IC50 is 1 to 99 nM. Take `Cc1cc(-c2ccc3c(c2)CCC2(CCN(C(=O)[C@H]4CCCO4)CC2)O3)cc2cccnc12` [Example 20, [6-(8-Methyl-6-quinolyl)spiro[chromane-2,4′-piperidine]-1′-yl]-[(2R)-tetrahydrofuran-2-yl]methanone]: the IC50 was 1 to 99 nM. With `CCC(=O)N1CCC2(CCc3cc(-c4ccc5c(C)nccc5c4)ccc3O2)CC1` [Example 24, 1-[6-(1-Methyl-6-isoquinolyl)spiro[chromane-2,4′-piperidine]-1′-yl]propan-1-one], the IC50 lay within 1 to 99 nM. Same read-out and setting: under `Cc1nccc2cc(-c3ccc4c(c3)CCC3(CCN(C(=O)C5CC5)CC3)O4)ccc12` [Example 25, Cyclopropyl-[6-(1-methyl-6-isoquinolyl)spiro[chromane-2,4′-piperidine]-1′-yl]methanone] stands 100 to 999 nM. Regarding `CCC(=O)N1CCC2(CCc3cc(-c4ccc5nccn5c4C)ccc3O2)CC1` [Example 26, 1-[6-(5-methylimidazo[1,2-a]pyridin-6-yl)spiro[chromane-2,4′-piperidine]-1′-yl]propan-1-one], the IC50 lay in the range of 100 to 999 nM. On the same count and under the same terms, for `Cc1c(-c2ccc3c(c2)CCC2(CCN(C(=O)C4CC4)CC2)O3)ccc2nccn12` [Example 27, Cyclopropyl-[6-(5-methylimidazo[1,2-a]pyridin-6-yl)spiro[chromane-2,4′-piperidine]-1′-yl]methanone] the value was 100 to 999 nM; for `Cc1c(-c2ccc3c(c2)CCC2(CCN(C(=O)[C@H]4CCCO4)CC2)O3)ccc2nccn12` [Example 28, [6-(5-Methylimidazo[1,2-a]pyridin-6-yl)spiro[chromane-2,4′-piperidine]-1′-yl]-[(2R)-tetrahydrofuran-2-yl]methanone], 1 to 99 nM; for `CCC(=O)N1CCC2(CC1)CC(=O)c1cc(-c3cnc4ccccc4c3)ccc1O2` [Example 38, 1′-Propanoyl-6-(3-quinolyl)spiro[chromane-2,4′-piperidine]-4-one], 100 to 999 nM. The same measure, in the same setting: for `COC(=O)N1CCC2(CC1)CC(=O)c1cc(-c3cnc4ccccc4c3)ccc1O2` [Example 39, Methyl 4-oxo-6-(3-quinolyl)spiro[chromane-2,4′-piperidine]-1′-carboxylate] the value was 1000 to 10000 nM; for `CCC(=O)N1CCC2(CC1)CC(O)c1cc(-c3cnc4ccccc4c3)ccc1O2` (stereo not drawn) [Example 42, 1-[4-Hydroxy-6-(3-quinolyl)spiro[chromane-2,4′-piperidine]-1′-yl]propan-1-one], 100 to 999 nM.

The values are drawn from patent US12448392B2, “Spiropiperidine derivatives” (89BIO LTD, priority 2016, dated 2025).
